In paper PMC10953372 (2023):

Experiments:
[1] = test system: Neomycin-bindender Riboschalter (2FA-markiert) (RNA, riboswitch, 2-fluoroadenine at 16, 17 and 24) GGCUGCUUGUCCUUUAAUGGUCCAGCC; assay: 19F NMR titration and CEST; details: 303 K; 215-1200 µM samples, 1 to 1.5 equivalents of ligand
[2] = test system: Neomycin-bindender Riboschalter (2FA-markiert) (RNA, riboswitch, 2-fluoroadenine at 16, 17 and 24) GGCUGCUUGUCCUUUAAUGGUCCAGCC; assay: 19F NMR CEST; details: 303 K; derived from kex = [L]kon + koff = 88 ± 8 s^-1; subsaturating ligand

| SMILES | binding [1] | koff [2] |
| --- | --- | --- |
| NC[C@@H]1O[C@H](O[C@H]2[C@@H](O)[C@H](O[C@@H]3[C@@H](O)[C@H](N)C[C@H](N)[C@H]3O[C@H]3O[C@H](CN)[C@@H](O)[C@H](O)[C@H]3N)O[C@@H]2CO)[C@H](N)[C@@H](O)[C@@H]1O | yes |  |
| NC[C@H]1O[C@H](O[C@H]2[C@H](O[C@@H]3O[C@H](CO)[C@@H](O)[C@H]3O)[C@@H](O)[C@H](N)C[C@@H]2N)[C@H](N)[C@@H](O)[C@@H]1O |  | ~ 1.4 s^-1 |
